The values that follow come from PubChem BioAssay (NCI).

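These data come from cells grown in 96-well plates and exposed to compound for 48 hours at five concentrations. The concentration for 50% growth inhibition is given as GI50. TGI is the concentration that stops growth completely.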

Some test systems named below: DU-145 prostate; OVCAR-5 ovarian; HOP-92 NSCLC; SK-MEL-28 melanoma; A549 NSCLC; MCF7 breast; CCRF-CEM leukemia; IGROV1 ovarian; TK-10 renal; HT29 colon.
What all share (test): NCI tumour cell line growth inhibition, 48 h

Turning to `COc1ccccc1Nc1nc2ccccc2c2occc12`, the GI50 is 16.9 µM with DU-145 prostate; 19.4 µM in the assay on OVCAR-5 ovarian; 24.1 µM with HOP-92 NSCLC; 8.3 µM in the assay on SK-MEL-28 melanoma; 14.6 µM with A549 NSCLC; 15.9 µM with MCF7 breast. Moreover, the GI50 in the assay on CCRF-CEM leukemia was 27.9 µM; in the assay with IGROV1 ovarian it was 14 µM; in the assay with TK-10 renal it was 18.8 µM. Also, the TGI in the assay on DU-145 prostate is > 50 µM; in the assay with OVCAR-5 ovarian, 39.2 µM; in the assay on HOP-92 NSCLC it was > 50 µM; in the assay with SK-MEL-28 melanoma, 40.2 µM; with A549 NSCLC, 41.4 µM; in the assay on MCF7 breast, > 50 µM. Further, the TGI in the assay on CCRF-CEM leukemia is > 50 µM; in the assay on IGROV1 ovarian, 39.5 µM; in the assay on TK-10 renal, > 50 µM.

Turning to `Cc1ccc(S(=O)(=O)N[C@@H](Cc2ccccc2)C(=O)CCl)cc1`, the GI50 with DU-145 prostate was 11.1 µM; with OVCAR-5 ovarian it was 13.7 µM; in the assay with HOP-92 NSCLC it was 2.19 µM; in the assay with HT29 colon, 24 µM; with A549 NSCLC it was 42.6 µM; in the assay on MCF7 breast, 15.5 µM. Moreover, the figures for the GI50 in the assay on IGROV1 ovarian and in the assay on TK-10 renal were 8.25 µM and 19.4 µM, respectively. Also, the TGI in the assay with DU-145 prostate was 26.1 µM; in the assay with OVCAR-5 ovarian, 65.9 µM; with HOP-92 NSCLC it was 12 µM; in the assay with HT29 colon, > 100 µM; with SK-MEL-28 melanoma, 53.7 µM; with A549 NSCLC, > 100 µM. Further, the figures for the TGI in the assay on MCF7 breast, with IGROV1 ovarian and in the assay on TK-10 renal were 50.9 µM, 42 µM and 41.7 µM, respectively.

In the case of `Oc1cc2c(cc1C(c1ccc3c(c1)OCO3)N1CCN(C(c3ccc4c(c3)OCO4)c3cc4c(cc3O)OCO4)CC1)OCO2` (stereo not drawn), the TGI is 41.3 µM in the assay with DU-145 prostate; 32.6 µM with OVCAR-5 ovarian; 78.3 µM in the assay with HOP-92 NSCLC; 18.8 µM in the assay with HT29 colon; 8.46 µM with SK-MEL-28 melanoma; > 100 µM in the assay with A549 NSCLC. The TGI is > 100 µM in the assay on MCF7 breast, 35.7 µM in the assay on IGROV1 ovarian and 43.8 µM in the assay on TK-10 renal.

Turning to `NC(=S)N/N=C/c1ccc(OC(=O)COc2ccccc2)cn1`, the GI50 with DU-145 prostate is 2.72 µM; in the assay with OVCAR-5 ovarian, 49.7 µM; with HT29 colon, 39 µM; with SK-MEL-28 melanoma, 44.4 µM; with A549 NSCLC it was 30 µM; in the assay with MCF7 breast, 2.76 µM. Moreover, the GI50 with CCRF-CEM leukemia is 1.58 µM; in the assay on IGROV1 ovarian it was 9.39 µM; with TK-10 renal it was > 100 µM. The TGI with DU-145 prostate is 8.96 µM; with OVCAR-5 ovarian it was > 100 µM; in the assay on HT29 colon it was > 100 µM; with SK-MEL-28 melanoma it was > 100 µM; in the assay on A549 NSCLC it was > 100 µM; with MCF7 breast, > 100 µM. Besides, the TGI in the assay with CCRF-CEM leukemia, in the assay on IGROV1 ovarian and in the assay with TK-10 renal was > 100 µM in each case.

On to `COC(=O)[C@@H]1[C@H](O)[C@H](C)[C@H](O)[C@H](C)/C=C\C=C(C)C(=O)Nc2c(C)c(OC(C)=O)c3c(c2O)C(=O)C(C)=C2OCOC(=C23)C(C)=C[C@@](C)(O)[C@H](O)[C@@H](C)[C@H]1OC(C)=O`, for which the TGI was > 100 µM in the assay on DU-145 prostate; > 100 µM in the assay on OVCAR-5 ovarian; > 100 µM in the assay with HOP-92 NSCLC; > 100 µM in the assay with HT29 colon; > 100 µM in the assay on SK-MEL-28 melanoma; 65.3 µM with MCF7 breast. Further, the TGI with CCRF-CEM leukemia and in the assay with IGROV1 ovarian was > 100 µM in each case.

`OCC#CCCCCOCC#Cc1ccccc1C#CCOCCCCC#CCO`: the GI50 in the assay with DU-145 prostate was 17.6 µM; in the assay with OVCAR-5 ovarian, 48.4 µM; in the assay on HOP-92 NSCLC, 28.8 µM; with HT29 colon, 21.2 µM; in the assay with SK-MEL-28 melanoma, 20.1 µM; with A549 NSCLC it was 39.8 µM. In addition, the GI50 is 47.5 µM in the assay on MCF7 breast, 46.1 µM in the assay with IGROV1 ovarian and 11.9 µM in the assay with TK-10 renal. Further, the TGI in the assay with DU-145 prostate is 41.3 µM; with OVCAR-5 ovarian, > 100 µM; in the assay with HOP-92 NSCLC it was 62 µM; in the assay with HT29 colon it was 63.6 µM; with SK-MEL-28 melanoma, 51.6 µM; in the assay on A549 NSCLC, > 100 µM. In addition, the figures for the TGI with MCF7 breast, in the assay with IGROV1 ovarian and in the assay with TK-10 renal were > 100 µM, > 100 µM and 41.6 µM, respectively.

In the case of `CNC1=CC(=O)C2=C(C1=O)C1C3=C(C(=O)C(Br)=C(OC)C3=O)C2c2ccccc21` (stereo not drawn), the GI50 in the assay on DU-145 prostate was 5.9 µM; in the assay on OVCAR-5 ovarian, 2.15 µM; in the assay with HOP-92 NSCLC, 1.24 µM; in the assay on HT29 colon, 2.71 µM; in the assay on SK-MEL-28 melanoma, 2.34 µM; in the assay with A549 NSCLC, 20.6 µM. Besides, the GI50 in the assay on MCF7 breast is 2.65 µM; in the assay with IGROV1 ovarian it was 1.35 µM; in the assay with TK-10 renal it was 7.56 µM. In addition, the TGI was 20.8 µM in the assay on DU-145 prostate; 8.63 µM with OVCAR-5 ovarian; 2.97 µM in the assay with HOP-92 NSCLC; > 50 µM in the assay on HT29 colon; > 50 µM in the assay on SK-MEL-28 melanoma; > 50 µM with A549 NSCLC. For the same molecule, the figures for the TGI with MCF7 breast, in the assay with IGROV1 ovarian and in the assay on TK-10 renal were 26.2 µM, 3.2 µM and 26.2 µM, respectively.

Take `Cc1ccc(S(=O)(=O)NNC(C[N+](=O)[O-])c2ccccc2)cc1` (stereo not drawn): the TGI is > 100 µM in the assay with DU-145 prostate; > 100 µM with OVCAR-5 ovarian; > 100 µM in the assay on HOP-92 NSCLC; 3.99 µM in the assay with HT29 colon; > 100 µM in the assay on A549 NSCLC; 21.6 µM in the assay on MCF7 breast. The TGI in the assay on CCRF-CEM leukemia is > 100 µM; with IGROV1 ovarian, 26.7 µM; in the assay on TK-10 renal it was 58.8 µM.

Consider `Clc1ccc(-c2nc(C(Cl)Cl)nc3cc(-c4ccccc4)nn23)cc1`, for which the GI50 in the assay on DU-145 prostate was 0.516 µM; with OVCAR-5 ovarian, 1.53 µM; with HOP-92 NSCLC, 1.25 µM; with HT29 colon it was 0.751 µM; in the assay with A549 NSCLC it was 0.875 µM; in the assay with MCF7 breast, 1.47 µM. The GI50 in the assay with CCRF-CEM leukemia is > 50 µM; in the assay with IGROV1 ovarian, 2.4 µM; in the assay on TK-10 renal it was 2.23 µM. Besides, the TGI with DU-145 prostate was 2.02 µM; in the assay on OVCAR-5 ovarian, > 50 µM; with HOP-92 NSCLC, > 50 µM; in the assay with HT29 colon it was > 50 µM; in the assay on A549 NSCLC it was 2.34 µM; in the assay on MCF7 breast, > 50 µM. Moreover, the TGI in the assay with CCRF-CEM leukemia, with IGROV1 ovarian and with TK-10 renal was > 50 µM throughout.
